Measured values reported in patent US20250049776A1, “AUTOPHAGY INDUCING COMPOUNDS AND USES THEREOF, IN PARTICULAR FOR A SYSTEMIC TREATMENT OF DISEASES AND CONDITIONS” (Samsara Therapeutics Inc., priority 2021, published 2025).

Columns and labels:
[1] = test system: Human osteosarcoma U20S cells; experiment: Assay to measure lysosome and autolysosome formation (acidic vesicle formation, LysoView/LysoTracker staining); type: cell-based; settings: for increase in acidic vesicle formation: relative to DMSO-treated control (10 μM)
Outline: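 U2OS cells treated with compounds in DMSO for 24 h, then stained 45 min at 37 °C with 1× LysoView 633 or 50 nM LysoTracker Deep Red, with Hoechst nuclear counterstain. Live-cell fluorescence imaging at 37 °C; acidic vesicle formation judged against DMSO-treated control.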

[2] = test system: U2OS cell line stabling expressing RFP-eGFP-hLC3b; experiment: Tandem reporter assay (autophagic flux, RFP-only puncta); type: cell-based; settings: Homo sapiens, RFP-only puncta as percentage of DMSO-treated control, 24 hours; for activity at 1 µM: read-out: Autolysosome % DMSO activity (compound concentration of 1 μM); for activity at 10 µM: read-out: Autolysosome % DMSO activity (compound concentration of 10 μM)
Experimental: Selected compounds of this invention were also assessed for their ability to stimulate autophagy using a U20S cell line stabling expressing RFP-eGFP-hLC3b (a tandem reporter cell line). During the process of autophagy, the cargo to be degraded is first enveloped by organelles called autophagosomes. These autophagosomes then fuse with lysosomes, causing them to become acidified and their digestive enzymes to become activated. The term “autophagic flux” is used to represent the dynamic process of autophagy: autophagic flux refers to the whole process of autophagy, including autophagosome formation, maturation, fusion with lysosomes, subsequent breakdown and the release of macromolecules back into the cytosol (Zhang X J, Chen S, Huang K X, Le W D. Why should autophagic flux be assessed? Acta Pharmacol Sin. 2013 May; 34(5): 595-9. doi: 10.1038/aps.2012.184. Epub 2013 Mar. 11). Compounds that stimulate autophagic flux stimulate the dynamic process of autophagy (the whole process of autophagy).
LC3b is a protein found in the membrane of autophagosomes which has been used to generate genetic reporters of autophagy in cells. In these systems a tandem fusion of LC3b is engineered with two fluorescent proteins of different wavelengths: one which is acid sensitive (for example eGFP, which fluoresces green) and the other which is acid insensitive (for example RFP, which fluoresces red). Cells expressing RFP-eGFP-hLC3b can be examined using fluorescent microscopy: the autophagosomes present will fluoresce in both channels (either yellow in an overlay of both channels or puncta that are present in both the individual red and green channels) but the autolysosomes present will fluoresce in the RFP (red) channel only. Using a fluorescent microscope, the number of autophagosomes and autolysosomes can be counted, allowing for the monitoring of both the induction of autophagy (total puncta count) and the rate of autophagic flux (ratio of red-only to red-and-green puncta). The influence of small molecules on autophagy induction and flux can be assessed using this system by comparison to a non-treated control.
Representative Procedure: Human osteosarcoma U2OS cells stably expressing RFP-eGFP-hLC3b were seeded (10,000 cells/well) into a 96-well glass-bottom plate (Cell Carrier Ultra, Perkin Elmer) in DMEM Glutamax media (Gibco) supplemented with 10% Fetal Bovine Serum (FBS) and antibiotics (100 u/ml penicillin, 100 μg/ml streptomycin, Invitrogen), then incubated overnight in a humified atmosphere at 37° C. and 5% CO2. The cells were then treated with the compounds of interest, dissolved in DMSO, in a duplicated 5- or 10-point dose-response. 8 wells were treated with an equivalent volume of DMSO, 4 with 0.3 μM torin-1 as a positive control (MCE) and 4 wells with 0.4 μM torin-1 plus 0.2 μM bafilomycin (MCE) as a control for flux inhibition. The cells were returned to the incubator and the treatment continued for 24 hours. After treatment, the media was aspirated off and the cells fixed with a solution of 4% formaldehyde+1% glutaraldehyde (Sigma) in dPBS (plus magnesium and calcium, Gibco).
Fixation was allowed to proceed for 15 minutes at room temperature then the fixative solution discarded and replaced with PBS (Gibco) plus Hoescht 33342 ([…], Sigma). After 30 minutes the plates were imaged on an Opera Phenix confocal microscope (Perkin-Elmer) using a 40× water objective, collecting using DAPI, mCherry and GFP channels. Cells were detected based upon the staining of their nuclei with DAPI using the Harmony image analysis software (Perkin-Elmer) and the number of autophagosomes (GFP and RFP puncta) and autolysosomes (RFP only puncta) per cell were counted using the spot picking function within the software.

| Structure (SMILES) | increase in acidic vesicle formation ([1]; U20S cells) | acidic vesicle formation relative to a DMSO-treated control ([1]; U20S cells, concentration of 10 μM, 24 hours) | activation at 0.8 µM ([1]; Homo sapiens, U2OS cells, concentration of 0.8 μM, read-out: Activity (percentage increase in acidic vesicle formation over the DMSO-treated control), Table 2) [%] | activity at 1 µM [2] [%] | activity at 10 µM [2] [%] |
| --- | --- | --- | --- | --- | --- |
| CC(C)N(C(=O)c1csc(-c2cnn(-c3ncccn3)c2)n1)C1CCNCC1 [Compound 329, N-(piperidin-4-yl)-N-(propan-2-yl)-2-[1-(pyrimidin-2-yl)-1H-pyrazol-4-yl]-1,3-thiazole-4-carboxamide] | only a slight increase | – | – | – | – |
| CC(C)N(C(=O)c1csc(-c2cnn(-c3cccnn3)c2)n1)[C@@H]1CCNC1 [Compound 332, N-(propan-2-yl)-2-[1-(pyridazin-3-yl)-1H-pyrazol-4-yl]-N-[(3R)-pyrrolidin-3-yl]-1,3-thiazole-4-carboxamide] | only a slight increase | only a slight increase | – | – | – |
| CC(C)N(C(=O)c1cc(-c2cnn(-c3ccccc3)c2)c[nH]1)[C@@H]1CCNC1 [Compound 334, 4-(1-phenyl-1H-pyrazol-4-yl)-N-(propan-2-yl)-N-[(3R)-pyrrolidin-3-yl]-1H-pyrrole-2-carboxamide] | only a slight increase | – | 30 to 50 | – | – |
| CC(C)N(C(=O)c1nc(-c2cnn(-c3ccccc3)c2)c[nH]1)[C@@H]1CCNC1 [Compound 345, 5-(1-phenyl-1H-pyrazol-4-yl)-N-(propan-2-yl)-N-[(3R)-pyrrolidin-3-yl]-1H-imidazole-2-carboxamide] | – | – | – | 116 | 72 |
| CN(C(=O)c1cnc(-c2cnn(-c3ccccc3)c2)[nH]1)[C@H]1CCNC1 [Compound 358, N-methyl-2-(1-phenyl-1H-pyrazol-4-yl)-N-[(3S)-pyrrolidin-3-yl]-1H-imidazole-4-carboxamide] | – | – | – | 102 | 103 |
| CN(C(=O)c1nc(-c2cnn(-c3ccccc3)c2)c[nH]1)[C@H]1CCNC1 [Compound 359, N-methyl-5-(1-phenyl-1H-pyrazol-4-yl)-N-[(3S)-pyrrolidin-3-yl]-1H-imidazole-2-carboxamide] | – | – | – | 113 | 144 |
| CN(C(=O)c1coc(-c2cnn(-c3ccccc3)c2)n1)[C@H]1CCNC1 [Compound 360, N-methyl-2-(1-phenyl-1H-pyrazol-4-yl)-N-[(3S)-pyrrolidin-3-yl]-1,3-oxazole-4-carboxamide] | – | – | – | 113 | 214 |
| CN(C(=O)c1csc(-c2cnn(-c3ccccc3)n2)n1)[C@@H]1CCNC1 [Compound 363, N-methyl-2-(2-phenyl-2H-1,2,3-triazol-4-yl)-N-[(3R)-pyrrolidin-3-yl]-1,3-thiazole-4-carboxamide] | – | – | – | 171 | – |
| CCN(C(=O)c1csc(-c2cnn(-c3ccccc3)n2)n1)[C@H]1CCNC1 [Compound 364, N-ethyl-2-(2-phenyl-2H-1,2,3-triazol-4-yl)-N-[(3S)-pyrrolidin-3-yl]-1,3-thiazole-4-carboxamide] | – | – | – | 166 | – |
| CCN(C(=O)c1csc(-c2cnn(-c3ccccc3)n2)n1)[C@@H]1CCNC1 [Compound 365, N-ethyl-2-(2-phenyl-2H-1,2,3-triazol-4-yl)-N-[(3R)-pyrrolidin-3-yl]-1,3-thiazole-4-carboxamide] | – | – | – | 183 | – |
| CCN(C(=O)c1csc(-c2cnn(-c3ccccn3)c2)n1)[C@H]1CCNC1 [Compound 367, N-ethyl-2-[1-(pyridin-2-yl)-1H-pyrazol-4-yl]-N-[(3S)-pyrrolidin-3-yl]-1,3-thiazole-4-carboxamide] | – | – | – | 114 | 215 |
| O=C(c1csc(-c2cnn(-c3ccccc3OC(F)(F)F)c2)n1)N1C[C@H]2C[C@@H]1CN2 [Compound 376, (1R,4R)-2-(2-{1-[2-(trifluoromethoxy)phenyl]-1H-pyrazol-4-yl}-1,3-thiazole-4-carbonyl)-2,5-diazabicyclo[2.2.1]heptane] | – | – | – | 176 | 260 |
| O=C(c1coc(-c2cnn(-c3ccccc3OC(F)(F)F)c2)n1)N1C[C@H]2C[C@@H]1CN2 [Compound 378, (1R,4R)-2-(2-{1-[2-(trifluoromethoxy)phenyl]-1H-pyrazol-4-yl}-1,3-oxazole-4-carbonyl)-2,5-diazabicyclo[2.2.1]heptane] | – | – | – | 122 | 199 |
| CC(C)N(C(=O)c1coc(-c2cnn(-c3ccccc3)c2)n1)[C@H]1CCNC1 [Compound 381, 2-(1-phenyl-1H-pyrazol-4-yl)-N-(propan-2-yl)-N-[(3S)-pyrrolidin-3-yl]-1,3-oxazole-4-carboxamide] | – | – | – | 118 | 179 |
| CC(C)N(C(=O)c1csc(-c2cnn(-c3ccccc3)c2)n1)C1CCNCC1(F)F (stereo not drawn) [Compound 382, N-(3,3-difluoropiperidin-4-yl)-2-(1-phenyl-1H-pyrazol-4-yl)-N-(propan-2-yl)-1,3-thiazole-4-carboxamide] | – | – | – | 96 | 108 |
| CC(C)N(C(=O)c1csc(-c2cnn(-c3ccccc3)c2)n1)C1CCNCC1F (stereo not drawn) [Compound 383, N-(3-fluoropiperidin-4-yl)-2-(1-phenyl-1H-pyrazol-4-yl)-N-(propan-2-yl)-1,3-thiazole-4-carboxamide] | – | – | – | 98 | 194 |
| CC(C)N(C(=O)c1csc(-c2cnn(C)c2)n1)[C@H]1CCNC1 [Compound 389, 2-(1-methyl-1H-pyrazol-4-yl)-N-(propan-2-yl)-N-[(3S)-pyrrolidin-3-yl]-1,3-thiazole-4-carboxamide] | – | – | – | 101 | 108 |
| CC(C)N(C(=O)c1csc(-c2cnn(C(C)C)c2)n1)[C@H]1CCNC1 [Compound 390, N-(propan-2-yl)-2-[1-(propan-2-yl)-1H-pyrazol-4-yl]-N-[(3S)-pyrrolidin-3-yl]-1,3-thiazole-4-carboxamide] | – | – | – | 106 | 116 |
| CC(C)N(C(=O)c1csc(-c2cnn(C(C)(C)C)c2)n1)[C@H]1CCNC1 [Compound 391, 2-(1-tert-butyl-1H-pyrazol-4-yl)-N-(propan-2-yl)-N-[(3S)-pyrrolidin-3-yl]-1,3-thiazole-4-carboxamide] | – | – | – | 109 | 161 |
| CC(C)N(C(=O)c1csc(-c2cnn(C)c2)n1)C1CCNCC1 [Compound 392, 2-(1-methyl-1H-pyrazol-4-yl)-N-(piperidin-4-yl)-N-(propan-2-yl)-1,3-thiazole-4-carboxamide] | – | – | – | 97 | 109 |
| CC(C)N(C(=O)c1csc(-c2cnn(C(C)C)c2)n1)C1CCNCC1 [Compound 393, N-(piperidin-4-yl)-N-(propan-2-yl)-2-[1-(propan-2-yl)-1H-pyrazol-4-yl]-1,3-thiazole-4-carboxamide] | – | – | – | 106 | 110 |
| CC(C)N(C(=O)c1csc(-c2cnn(C(C)(C)C)c2)n1)C1CCNCC1 [Compound 394, 2-(1-tert-butyl-1H-pyrazol-4-yl)-N-(piperidin-4-yl)-N-(propan-2-yl)-1,3-thiazole-4-carboxamide] | – | – | – | 114 | 176 |
| CC(C)N(C(=O)c1csc(-c2cnn(-c3ccccc3Cl)c2)n1)[C@H]1CCNC1 [Compound 395, 2-[1-(2-chlorophenyl)-1H-pyrazol-4-yl]-N-(propan-2-yl)-N-[(3S)-pyrrolidin-3-yl]-1,3-thiazole-4-carboxamide] | – | – | – | 137 | 191 |
